System: CPP32
Assay: Activation of endogenous CPP32 in HeLa cell S-100 (Western blot; cleavage of 35S-labeled PARP and SREBP-2)
Type: biochemical, human
Details: 1 mM nucleotide
Experimental: FIGS. 1A-1D illustrate dATP-dependent activation of CPP32 and DNA fragmentation in vitro. Aliquots (10 μl) of HeLa cell S-100 (50 μg) were incubated alone (lane 1), in the presence of 1 mM ATP (lane 2), or in the presence of 1 mM dATP (lane 3) at 30° C. for 1 hr in a final volume of 20 μl of buffer A. FIG. 1A, samples were subjected to SDS-PAGE and transferred to a nitrocellulose filter, probed with a monoclonal anti-CPP32 antibody, and the antigen/antibody complex was visualized by the ECL method. The filter was exposed to Kodak X-OMAT AR X-ray film for 1 min. In FIG. 1B, an aliquot of 10 μl of in vitro translated, ^35S-labeled PARP was added to each reaction. After 5 min, the samples were subjected to SDS-PAGE and transferred to a nitrocellulose filter. The filter was exposed to film for 2 hr at room temperature. In FIG. 1C, a 5 μl aliquot of in vitro translated, ^35S-labeled SREBP-2 was added to each reaction. After incubation at 30° C. for 30 min, the samples were subjected to SDS-PAGE, the gel was dried and exposed to film for 2 hr at room temperature. In FIG. 1D, a 50 μlaliquot of HeLa cell S-100 (250 μg) was incubated with 6 μl Hamster Liver nuclei in the absence (lane 1), or presence of 1 mM ATP (lane 2) or dATP (lane 3) for 2 hr at 37° C. in a final volume of 60 μl of buffer A. DNA was isolated as described in the Examples and size-separated by agarose gel electrophoresis (2% agarose), and the DNA was visualized by ethidium bromide staining.
Activation of CPP32 and DNA fragmentation are two well characterized biochemical markers of apoptosis and its initiation. With the goal of producing an in vitro system that duplicates apoptosis, we prepared 100,000×g cytosolic supernatant (S-100) from suspension cultures of HeLa cells. The activation of CPP32 is the result of cleavage of its 32 kDa precursor into the 20 kDa NH2-terminal fragment and 11 kDa COOH-terminal fragment [Nicholson et al. (1995) supra], thus the activation of CPP32 in the HeLa cell S-100 was monitored by Western blot analysis using a monoclonal antibody against the 20 kDa fragment of CPP32 (FIG. 1A). The enzymatic activity of CPP32 was assayed by measuring the cleavage of two ^35S-labeled substrates, PARP (FIG. 1B) and SREBP-2 (FIG. 1C). DNA fragmentation was assayed by incubating the HeLa cell S-100 with nuclei isolated from hamster liver followed by genomic DNA extraction and analysis by agarose gel electrophoresis. […] The sizes of the cleaved products of PARP and SREBP-2 were the same as observed in cells undergoing apoptosis [Kaufmann et al. (1993) Cancer Res. 53, 3976-3985; Wang et al. (1996) supra]. […]

Structure (SMILES): Nc1ncnc2c1ncn2[C@H]1C[C@H](O)[C@@H](COP(=O)(O)OP(=O)(O)OP(=O)(O)O)O1 [dATP, deoxyadenosine-5-triphosphate]
- cleavage of 35S-labeled PARP by activated extract: readily cleaved PARP into 85 kDa and 24 kDa fragments
- cleavage of 35S-labeled SREBP-2 by activated extract: SREBP-2 into 55 kDa and 70 kDa fragments
- activation of CPP32 in HeLa cell S-100 (30° C., 1 hr, Western blot): most of the CPP32 in the HeLa cell S-100 was activated
